# Where a name gives a salt, the structure may show the parent alone.
# Target: T1, Oxytocin receptor (uterin muscle membrane preparation) (Rattus norvegicus, UniProt P70536)
# T1 construct: was homogenized, which was used as a membrane; from tissue; host or cells: uterine muscle membranes from diethylstilbestrol-treated animals
# T1 sequence (P70536 1-388): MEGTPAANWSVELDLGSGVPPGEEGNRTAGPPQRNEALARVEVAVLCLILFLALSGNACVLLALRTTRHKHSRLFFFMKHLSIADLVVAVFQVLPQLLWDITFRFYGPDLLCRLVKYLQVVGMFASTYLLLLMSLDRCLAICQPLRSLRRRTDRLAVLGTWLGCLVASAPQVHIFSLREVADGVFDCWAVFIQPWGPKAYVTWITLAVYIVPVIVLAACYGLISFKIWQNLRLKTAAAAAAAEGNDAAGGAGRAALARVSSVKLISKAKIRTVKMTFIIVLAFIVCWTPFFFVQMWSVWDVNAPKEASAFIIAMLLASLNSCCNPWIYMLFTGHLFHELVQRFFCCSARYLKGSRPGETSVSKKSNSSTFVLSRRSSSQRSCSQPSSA
# Experiment: Oxytocin receptor binding assay
# Details: [3H]-oxytocin 10^-9 M, 25°, one hour, pH 8.0, uterin muscle membrane, DES-treated
# Method: Test-5 Oxytocin receptor binding assay
# In accordance with Chan's method [by W. Y. Chan, et al.: Endocrinology, 126, 2095-2101 (1990)], the uterin muscle benn injected subcutaneously with diethylstilbe-sterol (DES) the day before and was homogenized, which was used as a membrane prepara tion. The membrane preparation (0.2 mg), [^3 H]-oxytocin (100,000 dpm, 10^-9 M), a test compound (10^-9 to 10^-5 M) were incubated at 25°. for one hour in 100 mM Tris-HCl buffer (pH=8.0, 250 μl) containing 5 mM MgCl2, 1 mM EDTA and 0.1% BSA. The mixture was filtered through a glass filter (GF/F) so as to separate the membrane preparation combining with [^3 H]-oxytocin, then, was washed twicw with the buffer (5 ml). The glass filter was put into a vial and mixed with Aquasole (a liquid scintillation cocktail). The amount of [^3 H]-oxytocin combining w ith the membrane was measured by a liquid scintillation counter. The rate of the inhibitory effect of the test compound was calculated according to the equation as follows: […]
# C1 : the amount of [^3 H]-oxytocin combining with the membrane in the presence of a test compound (in known amount),
# C0 : the amount of [^3 H]-oxytocin combinig with the membrane in the absence of a test compound,
# B: the amount of [^3 H]-oxytocin combining with the membrane in the presence of the excess amount of oxytocin (5×10^-6 M).
# The results are expressed as IC50 values, which is the concentration of the test compound required to achieve the inhibitory effect in the rate of 50%.
row,SMILES,IC50 [nM]
1,"COc1cc(NC(=O)c2ccccc2C)ccc1C(=O)N1CCCC(OC(=O)CN2CCOCC2)c2cc(Cl)ccc21 (stereo not drawn) [Example 17, 5-(2-Morpholinoacetyloxy)-7-chloro-1-[2-methoxy-4-(2-methylbenzoylamino)benzoyl]-2,3,4,5-tetrahydro-1H-benzoazepine]",46
2,"COc1cc(C(=O)N2CCCC(CC(=O)N(C)C)c3cc(Cl)ccc32)ccc1NC(=O)c1ccccc1C (stereo not drawn) [Example 32, 5-Dimethylaminocarbonylmethyl-7-chloro-1-[3-methoxy-4-(2-methylbenzoylamino)benzoyl]-2,3,4,5-tetrahydro-1H-benzoazepine]",610
3,"COc1cc(NC(=O)c2ccccc2Br)ccc1C(=O)N1CCCC(CC(=O)N2CCC(NC(C)=O)CC2)c2cc(F)ccc21 (stereo not drawn) [Example 60, 5-[(4-Acetylamino-1-piperidinyl)carbonylmethyl]-7-fluoro-1-[2-methoxy-4-(2-bromobenzoylamino)benzoyl]-2,3,4,5-tetrahydro-1H-benzoazepine]",99
4,"COc1cc(NC(=O)Cc2ccccc2C)ccc1C(=O)N1CCCC(OC(=O)CN(C)C)c2cc(Cl)ccc21 (stereo not drawn) [Example 68, 5-(2-Dimethylaminoacetyloxy)-7-chloro-1-{2-methoxy-4-[2-(2-methylphenyl)acetylamino]benzoyl}-2,3,4,5-tetrahydro-1H-benzoazepine]",230
5,"Cc1ccccc1CC(=O)Nc1ccc(C(=O)N2CCCC(O)c3cc(Cl)ccc32)cc1 (stereo not drawn) [Example 106, 5-Hydroxy-7-chloro-1-{4-[2-(2-methylphenyl)acetylamino]benzoyl}-2,3,4,5-tetrahydro-1H-benzoazepine]",600
6,COc1cc(C(=O)N2CCCC(OC(=O)[C@@H](N)CCCCN)c3cc(Cl)ccc32)ccc1NC(=O)c1ccccc1C (stereo partly drawn) [Example 107],1300
7,Cc1ccccc1C(=O)Nc1ccc(C(=O)N2CCCC(CC(=O)N3CCN(C)CC3)c3cc(Cl)ccc32)c(Cl)c1 (stereo not drawn) [Example 108],1900
8,Cc1ccccc1C(=O)Nc1ccc(C(=O)N2CCCC(CC(=O)N3CCN(C)CC3)c3cc(Cl)ccc32)cc1 (stereo not drawn) [Example 109],360
9,COc1cc(NC(=O)c2ccccc2C)ccc1C(=O)N1CCCC(CC(=O)N2CCC(N(C)C)CC2)c2cc(F)ccc21 (stereo not drawn) [Example 110],220
10,"Cc1ccccc1C(=O)Nc1ccc(C(=O)N2CCCC(CC(=O)N(C)C)c3cc(Cl)ccc32)cc1 (stereo not drawn) [Example 111, 5-Dimethylaminocarbonylmethyl-7-chloro-1-[4-(2-methylbenzoylamino)benzoyl]-2,3,4,5-tetrahydro-1H-benzoazepine]",250
11,"Cc1ccccc1C(=O)Nc1ccc(C(=O)N2CCCC(CC(N)=O)c3cc(Cl)ccc32)cc1 (stereo not drawn) [Example 112, 5-Carbamoylmethyl-7-chloro-1-[4-(2-methylbenzoylamino)benzoyl]-2,3,4,5-tetrahydro-1H-benzoazepine]",280
12,O=C(Nc1ccc(C(=O)N2CCCC(OCCO)c3cc(Cl)ccc32)cc1)c1ccccc1Cl (stereo not drawn) [Example 113],250
13,COc1cc(NC(=O)c2ccccc2Br)ccc1C(=O)N1CCCC(CC(=O)N2CCCC2)c2cc(F)ccc21 (stereo not drawn) [Example 114],170
14,Cc1ccccc1C(=O)Nc1ccc(C(=O)N2CCCC(CC(=O)N3CCNCC3)c3cc(Cl)ccc32)c(C)c1 (stereo not drawn) [Example 115],2100
15,CN1CCN(C(=O)CC2CCCN(C(=O)c3ccc(NC(=O)c4ccccc4Cl)cc3)c3ccc(Cl)cc32)CC1 (stereo not drawn) [Example 116],380
16,"COc1cc(C(=O)N2CCCC(CC(=O)N3CCN(C)CC3)c3cc(Cl)ccc32)ccc1NC(=O)c1ccccc1Cl (stereo not drawn) [Example 117, 5-(4-Methyl-1-piperazinyl)carbonylmethyl-7-chloro-1-[3-methoxy-4-(2-chlorobenzoylamino)benzoyl]-2,3,4,5-tetrahydro-1H-benzoazepine.cndot.hydrochlorid]",320
17,"Cc1ccccc1C(=O)Nc1ccc(C(=O)N2CCCC(CC(=O)N3CCC(N(C)C)CC3)c3cc(Cl)ccc32)c(C)c1 (stereo not drawn) [Example 118, 5-(4-Dimethylamino-1-piperidinyl)carbonylmethyl-7-chloro-1-[2-methyl-4-(2-methylbenzoylamino)benzoyl]-2,3,4,5-tetrahydro-1H-benzoazepine.cndot.hydrochloride]",3200
18,"COc1cc(C(=O)N2CCCC(CC(=O)N3CCN(C)CC3)c3cc(Cl)ccc32)ccc1NC(=O)c1ccccc1Br (stereo not drawn) [Example 119, 5-(4-Methyl-1-piperazinyl)carbonylmethyl-7-chloro-1-[3-methoxy-4-(2-bromobenzoylamino)benzoyl]-2,3,4,5-tetrahydro-1H-benzoazepine]",270
19,"COc1cc(C(=O)N2CCCC(CC(=O)N(C)C)c3cc(Cl)ccc32)ccc1NC(=O)c1ccccc1Br (stereo not drawn) [Example 120, 5-Dimethylaminocarbonylmethyl-7-chloro-1-[3-methoxy-4-(2-bromobenzoylamino)benzoyl]-2,3,4,5-tetrahydro-1H-benzoazepine]",190
20,"C=CCNCCC1CCCN(C(=O)c2ccc(NC(=O)c3ccccc3Cl)cc2C)c2ccc(Cl)cc21 (stereo not drawn) [Example 121, 5-(2-Allylaminoethyl)-7-chloro-1-[2-methyl-4-(2-chlorobenzoylamino)benzoyl]-2,3,4,5-tetrahydro-1H-benzoazepine]",2300
21,"CNC(=O)CC1CCCN(C(=O)c2ccc(NC(=O)c3ccccc3Cl)cc2C)c2ccc(Cl)cc21 (stereo not drawn) [Example 122, 5-Methylaminocarbonylmethyl-7-chloro-1-[2-methyl-4-(2-chlorobenzoylamino)benzoyl]-2,3,4,5-tetrahydro-1H-benzoazepine]",2200
22,Cc1cc(NC(=O)c2ccccc2Cl)ccc1C(=O)N1CCCC(CC(N)=O)c2cc(Cl)ccc21 (stereo not drawn) [Example 123],2200
23,"Cc1ccccc1C(=O)Nc1ccc(C(=O)N2CCCC(CCN3CCOCC3)c3cc(Cl)ccc32)c(C)c1 (stereo not drawn) [Example 124, 5-Morpholinoethyl-7-chloro-1-[2-methyl-4-(2-methylbenzoylamino)benzoyl]-2,3,4,5-tetrahydro-1H-benzoazepine]",2800
24,"Cc1ccccc1C(=O)Nc1ccc(C(=O)N2CCCC(CC(N)=O)c3cc(Cl)ccc32)c(Cl)c1 (stereo not drawn) [Example 173, 5-Carbamoylmethyl-7-chloro-1-[2-chloro-4-(2-methylbenzoylamino)benzoyl]-2,3,4,5-tetrahydro-1H-benzoazepine]",2190
25,"CC(=O)N1CCN(CCC2CCCN(C(=O)c3ccc(NC(=O)c4ccccc4C)cc3Cl)c3ccc(Cl)cc32)CC1 (stereo not drawn) [Example 174, 5-[2-(4-Acetyl-1-piperazinyl)ethyl]-7-chloro-1-[2-chloro-4-(2-methylbenzoylamino)benzoyl]-2,3,4,5-tetrahydro-1H-benzoazepine]",1050
26,"CCN(CC)CCN(CC)C(=O)CC1CCCN(C(=O)c2ccc(NC(=O)c3ccccc3Cl)cc2OC)c2ccc(Cl)cc21 (stereo not drawn) [Example 175, 5-[N-(2-Diethylaminoethyl)-N-ethylamino]-carbonylmethyl-7-chloro-1-[2-methoxy-4-(2-chlorobenzoylamino)benzoyl]-2,3,4,5-tetrahydro-1H-benzoazepine]",13
27,"COc1cc(NC(=O)c2ccccc2Cl)ccc1C(=O)N1CCCC(OCCn2cncn2)c2cc(Cl)ccc21 (stereo not drawn) [Example 176, 5-[2-(1,2,4-Triazol-1-yl)ethoxy]-7-chloro-1-[2-methoxy-4-(2-chlorobenzoylamino)benzoyl]-2,3,4,5-tetrahydro-1H-benzoazepine]",387
28,"COc1cc(NC(=O)c2ccccc2Cl)ccc1C(=O)N1CCCC(OCCNC2CCCC2)c2cc(Cl)ccc21 (stereo not drawn) [Example 177, 5-(2-Cyclopentylaminoethoxy)-7-chloro-1-[2-methoxy-4-(2-chlorobenzoylamino)benzoyl]-2,3,4,5-tetrahydro-1H-benzoazepine]",258
29,"CN1CCN(C(=O)CC2CCCN(C(=O)c3ccc(NC(=O)c4ccccc4)cc3)c3ccc(Cl)cc32)CC1 (stereo not drawn) [Example 178, 5-(4-Methyl-1-piperazinyl)carbonylmethyl-7-chloro-1-(4-benzoylaminobenzoyl)-2,3,4,5-tetrahydro-1H-benzoazepine]",969
30,"COc1cc(NC(=O)c2ccccc2Cl)ccc1C(=O)N1CCC=C(CCN2CCN(C(C)=O)CC2)c2cc(Cl)ccc21 [Example 179, 5-[2-(4-Acetyl-1-piperazinyl)ethyl]-7-chloro-1-[2-methoxy-4-(2-chlorobenzoylamino)benzoyl]-2,3,-dihydro-1H-benzoazepine]",2600

# Source: US5622947A, “Benzoheterocyclic compounds and vasopressin antagonist and oxytocin antagonist compositions containing a benzoheterocyclic compound” (Otsuka Pharmaceutical Co., Ltd., priority 1992, dated 1997)
